Reference: patent US10472315B2, “Inhibitors of methionine aminopeptidases and methods of treating disorders” (THE JOHNS HOPKINS UNIVERSITY, priority 2009, dated 2019)

Tested on: M. tuberculosis CDC1551 wild-type, control and MtMetAP1a/MtMetAP1c knock-in strains
Type: cell-based

O=C1C(Cl)=C(Cl)C(=O)c2ccccc21 [Compound 4, 2,3-dichloro-1,4-naphthoquinone]
growth of MtMetAP1a and MtMetAP1c knock-in strains: gained resistance | growth of wild-type and control M. tuberculosis strains: inhibited
